Results as given in patent US6492328B2, “Novispirins: antimicrobial peptides” (priority 2000, dated 2002).
≈ marks a conversion by molar mass, not a printed value. Like-named read-outs stand apart in the source and are kept apart here. Where no end group is shown, it is not given here.

What was measured:
E. coli ML 35P [1] = system: E. coli ML 35P
From the text: (§1) Effect of serum. […] Because serum can be present in an inflammatory focus or exudate, the ability to function in the presence of serum would be a desirable property.
(§2) In these experiments, the underlay gel contained 60% RPMI-1640, ±2.5 or 20% normal human serum (NHS). The remainder of the solution was phosphate-buffered saline

P. aeruginosa MR 3007 = details: underlay gel 60% RPMI-1640
From the text: as §1, §2

E. coli = experiment: Two stage radial diffusion assay with 10 mM HEPES, G10 variants (Table 8); assay type: cell-based; details: mean ± SEM, n = 3, in µg/mL
From the text: (§3) Amidation (—NH2) of the carboxy terminus in some of the novispirin G10 variants was designed to increase overall positive charge. The sequences of these peptides and their net charge is shown below in Table 7. The fractional (and pH dependent) charge on histidine12 was ignored in this calculation.
(§4) In Table 8, MIC signifies minimal inhibitory concentration, as determined by two stage radial diffusion assays. […] Shaded boxes show results that represent a significant improvement of activity (p<0.01 by t-test), relative to novispirin G10. […] None of the above G10 novispirin derivatives caused any hemolysis of human red blood cells, even when tested at 80 μg/ml. It is likely that other cationic amino acids (e.g., lysine, ornithine, etc) could also be used in position 12 to achieve better activity in the presence of calcium and magnesium ions.

K. pneumoniae = experiment: as above; assay type: cell-based; details: mean ± SEM, n = 3, in µg/mL
From the text: as §3, §4

P. aeruginosa = experiment: as above; assay type: cell-based; details: mean ± SEM, n = 3, in µg/mL
From the text: as §3, §4

S. aureus = experiment: as above; assay type: cell-based; details: +1 mM Ca; mean ± SEM, n = 3; in µg/mL
From the text: as §3, §4

E. coli ML 35P [2] = assay type: cell-based, Escherichia coli; details: mean ± SEM, n = 3
Method: Antimicrobial activity. Several different methods were used to examine the antimicrobial properties of novispirins, including: a) two-stage radial diffusion assays; b) colony counting assays; and c) standard microbroth dilution assays.
Antimicrobial activity was tested in media with low, normal or high salinity. In radial diffusion assays, this was accomplished by using a low salt “basic medium” containing 0.3 mg of trypticase soy broth powder/ml of 10 mM sodium phosphate buffer, pH 7.4. Media with “normal” or “high” salinity were prepared by supplementing the basic medium with 100 mM NaCl to obtain media with normal salinity, or with 175-200 mM NaCl to obtain high salt media. Retention of activity against P. aeruginosa in high salt media is important because airway fluids from cystic fibrosis patients are reported to show hypersalinity, and other sites—including skin surfaces surfaces and the urinary bladder—may have locally high salt concentrations.
The relative activities of ovispirin and the novispirins against two organisms, E. coli and a multi-resistant strain of P. aeruginosa, are shown in FIG. 1. The MICs were obtained by radial diffusion assays performed under low, normal, and high salt conditions (which are denoted along the X-axis as 0, 100 and 200 mM NaCl, respectively).
Table 1 compares the activity of novispirins against these Gram-negative bacteria with its activity against Listeria monocytogenes, Staphylococcus aureus and C. albicans. […] Note that novispirins show activity against these Gram-positive bacteria when tested in physiological (100 mM NaCl) salt concentrations, and also that Novispirin G10 is quite active against C. albicans. Although neither ovispirin nor novispirins retained activity against C. albicans or the Gram positives under very high salt conditions (200 mM NaCl), they remained active against the Gram-negatives under these conditions. Consequently, even if the airways' NaCl concentrations are exceptionally high in CF patients, this factor will not impair the ability of ovispirin or novispirins to kill P. aeruginosa.

S. maltophilia 18CP = experiment: Novispirins vs S. maltophilia (Table 5); assay type: cell-based, Stenotrophomonas maltophilia; parameters: unit not given here; details: strain 18CP
Method: (§5) Microorganisms used in this study included 13 different Pseudomonas aeruginosa strains. The AML-654 and LZ-1 strains are recent clinical isolates from the UCLA Clinical Microbiology laboratory. Nine strains (5 mucoid, 4 nonmucoid) were recent CF isolates provided by Dr. Lisa Saiman. All of the P. aeruginosa strains except PAO-1 strain were resistant to multiple conventional antibiotics, and all 9 CF isolates were resistant to 250 μg/ml of tobramycin. We have also tested 5 strains each of Stenotrophomonas maltophilia and Burkholderia cepacia from CF patients (also provided by Dr. Lisa Saiman), two strains of Escherichia coli (ML-35p and DH-5a), and single strains of Staphylococcus aureus[MRSA (methicillin-resistant S. aureus)] and C. albicans.

S. maltophilia 36CN = experiment: Novispirins vs S. maltophilia (Table 5); assay type: cell-based, Stenotrophomonas maltophilia; parameters: unit not given here; details: strain 36CN
Method: as §5

S. maltophilia 42CK = experiment: Novispirins vs S. maltophilia (Table 5); assay type: cell-based, Stenotrophomonas maltophilia; parameters: unit not given here; details: strain 42CK
Method: as §5

S. maltophilia 47CG = experiment: Novispirins vs S. maltophilia (Table 5); assay type: cell-based, Stenotrophomonas maltophilia; parameters: unit not given here; details: strain 47CG
Method: as §5

S. maltophilia 51Cl = experiment: Novispirins vs S. maltophilia (Table 5); assay type: cell-based, Stenotrophomonas maltophilia; parameters: unit not given here; details: strain 51Cl
Method: as §5

human red blood cells = assay type: cell-based
Method: Hemolytic Activity: This was tested by incubating various concentrations of peptide with a suspension (2.8% v/v) of washed human, murine, sheep or bovine red cells in PBS. After 30 min at 37C, the tubes were centrifuged and the percentage of total hemoglobin released to the supernatant was measured.
Similar results were obtained with murine red blood cells. In contrast, none of these peptides were appreciably hemolytic towards sheep or bovine red blood cells.

[3] = system: MRC-5 human lung fibroblasts; assay type: cell-based
From the text: FIG. 5 compares the cytotoxicity of these peptides for MRC-5 human lung fibroblasts.

[4] = Very high salinity (+200 mM NaCl)

Compound | MIC (E. coli ML 35P [2]; Low Salt (+0 mM NaCl)) [µg/mL] | MIC (E. coli ML 35P [2]; Normal salinity (+100 mM NaCl)) [µg/mL] | MIC (E. coli ML 35P [2]; [4]) [µg/mL] | activity vs S. maltophilia (S. maltophilia 18CP; +100 mM NaCl) | activity vs S. maltophilia (S. maltophilia 18CP; +175 mM NaCl) | activity vs S. maltophilia (S. maltophilia 18CP; LOW SALT CONDITIONS) | activity vs S. maltophilia (S. maltophilia 36CN; +100 mM NaCl) | activity vs S. maltophilia (S. maltophilia 36CN; +175 mM NaCl) | activity vs S. maltophilia (S. maltophilia 36CN; LOW SALT CONDITIONS) | activity vs S. maltophilia (S. maltophilia 42CK; +100 mM NaCl) | activity vs S. maltophilia (S. maltophilia 42CK; +175 mM NaCl) | activity vs S. maltophilia (S. maltophilia 42CK; LOW SALT CONDITIONS) | activity vs S. maltophilia (S. maltophilia 47CG; +100 mM NaCl) | activity vs S. maltophilia (S. maltophilia 47CG; +175 mM NaCl) | activity vs S. maltophilia (S. maltophilia 47CG; LOW SALT CONDITIONS) | activity vs S. maltophilia (S. maltophilia 51Cl; +100 mM NaCl) | activity vs S. maltophilia (S. maltophilia 51Cl; +175 mM NaCl) | activity vs S. maltophilia (S. maltophilia 51Cl; LOW SALT CONDITIONS) | other results
CC[C@H](C)[C@H](NC(=O)[C@H](CCCCN)NC(=O)[C@H](CCC(=O)O)NC(=O)[C@H](CCCCN)NC(=O)[C@H](CO)NC(=O)[C@H](CCCCN)NC(=O)[C@H](CCCNC(=N)N)NC(=O)[C@H](Cc1ccccc1)NC(=O)[C@H](Cc1ccccc1)NC(=O)[C@H](CC(=O)O)NC(=O)CNC(=O)[C@H](CC(C)C)NC(=O)[C@@H](N)CC(C)C)C(=O)NCC(=O)N[C@@H](CCCCN)C(=O)N[C@@H](CCC(=O)O)C(=O)N[C@@H](Cc1ccccc1)C(=O)N[C@@H](CCCCN)C(=O)N[C@@H](CCCNC(=N)N)C(=O)N[C@H](C(=O)N[C@H](C(=O)N[C@@H](CCC(N)=O)C(=O)N[C@@H](CCCNC(=N)N)C(=O)N[C@H](C(=O)N[C@@H](CCCCN)C(=O)N[C@@H](CC(=O)O)C(=O)N[C@@H](Cc1ccccc1)C(=O)N[C@@H](CC(C)C)C(=O)N[C@@H](CCCNC(=N)N)C(=O)N[C@@H](CC(N)=O)C(=O)N[C@@H](CC(C)C)C(=O)N[C@H](C(=O)N1CCC[C@H]1C(=O)N[C@@H](CCCNC(=N)N)C(=O)N[C@H](C(=O)N[C@@H](CCC(=O)O)C(=O)N[C@@H](CO)C(=O)O)[C@@H](C)O)C(C)C)[C@@H](C)CC)C(C)C)[C@@H](C)CC [LL-37, reference compound] |  |  |  |  |  |  |  |  |  |  |  |  |  |  |  |  |  |  | MIC (E. coli ML 35P [1]; 0% NHS, underlay gel 60% RPMI-1640): 5.8 µg/mL (≈ 1.29 µM); MIC (E. coli ML 35P [1]; 2.5% NHS, underlay gel 60% RPMI-1640): 21.0 µg/mL (≈ 4.67 µM); MIC (P. aeruginosa MR 3007; 0% NHS): 12.7 µg/mL (≈ 2.83 µM); MIC (P. aeruginosa MR 3007; 2.5% NHS): 23.7 µg/mL (≈ 5.27 µM); MIC (P. aeruginosa MR 3007; 20% NHS): 141 µg/mL (≈ 31.4 µM)
K N L R R I I R K G I H I I K K Y G-CONH2 (KNLRRIIRKGIHIIKKYG-NH2) [Novispirin G10 amide] |  |  |  |  |  |  |  |  |  |  |  |  |  |  |  |  |  |  | MIC (E. coli; +1 mM Ca): 7.26 ± 0.02; MIC (E. coli; +1 mM Mg): 17.2 ± 3.9; MIC (E. coli; No Ca/Mg): 0.06 ± 0.00; MIC (K. pneumoniae; +1 mM Ca): 83.5 ± 6.4; MIC (K. pneumoniae; +1 mM Mg): >250; MIC (K. pneumoniae; No Ca/Mg): 0.12 ± 0.01; MIC (P. aeruginosa; +1 mM Ca): 83.5 ± 6.4; MIC (P. aeruginosa; +1 mM Mg): >250; MIC (P. aeruginosa; No Ca/Mg): 0.12 ± 0.01; MIC (S. aureus): >79
KNLRRIGRKIIHIIKKYG [G7 Novispirin, K N L R R I G R K I I H I I K K Y G] | 0.2 ± 0.0 | 0.2 ± 0.0 | 1.5 ± 0.4 | 0.38 | 0.70 | 0.61 | 0.31 | 0.29 | 0.17 | 0.92 | 2.85 | 0.42 | 0.39 | 0.29 | 0.25 | 0.89 | 1.94 | 0.54 | 
KNLRRIIRKIIHIIKKYG [Ovispirin, K N L R R I I R K I I H I I K K Y G] | 0.7 ± 0.0 | 0.7 ± 0.1 | 1.5 ± 0.6 |  |  |  |  |  |  |  |  |  |  |  |  |  |  |  | MIC (E. coli ML 35P [1]; ML 35P): 1.7 µg/mL; hemolytic activity for human red blood cells (human red blood cells): about as hemolytic for human red blood cells as protegrin PG-1
KNLRRIIRKTIHIIKKYG [T10 Novispirin, K N L R R I I R K T I H I I K K Y G] | 0.5 ± 0.2 | 0.3 ± 0.2 | 2.7 ± 1.1 |  |  |  |  |  |  |  |  |  |  |  |  |  |  |  | cytotoxicity for MRC-5 human lung fibroblasts [3]: virtually devoid of cytotoxicity
KNLRRITRKIIHIIKKYG [T7 Novispirin, K N L R R I T R K I I H I I K K Y G] | 0.3 ± 0.1 | 0.2 ± 0.1 | 1.4 ± 0.5 | 0.58 | 0.62 | 0.74 | 0.32 | 0.52 | 0.21 | 0.73 | 1.92 | 0.56 | 0.47 | 0.48 | 0.18 | 1.75 | 2.74 | 0.88 | 
